Experimental data taken from the NIST ThermoML archive (doi:10.1021/je034087q).
± gives the expanded uncertainty stated by the source.

Assay: xn = mol fraction of the nth substance listed

CCCCC [pentane] + O=C=O
Conditions | mass density [kg/m3]
312.35 K, 7770 kPa, Fluid (supercritical or subcritical phases), x2 = 0.96 | 475 ± 3
312.35 K, 7780 kPa, Fluid (supercritical or subcritical phases), x2 = 0.96 | 479 ± 3
312.35 K, 7790 kPa, Fluid (supercritical or subcritical phases), x2 = 0.96 | 482 ± 3
312.35 K, 7800 kPa, Fluid (supercritical or subcritical phases), x2 = 0.96 | 488 ± 3
312.35 K, 7810 kPa, Fluid (supercritical or subcritical phases), x2 = 0.96 | 491 ± 3
312.35 K, 7840 kPa, Fluid (supercritical or subcritical phases), x2 = 0.96 | 501 ± 3
312.35 K, 7870 kPa, Fluid (supercritical or subcritical phases), x2 = 0.96 | 511 ± 3
312.35 K, 7890 kPa, Fluid (supercritical or subcritical phases), x2 = 0.96 | 522 ± 3
312.35 K, 7920 kPa, Fluid (supercritical or subcritical phases), x2 = 0.96 | 532 ± 3
312.35 K, 7970 kPa, Fluid (supercritical or subcritical phases), x2 = 0.96 | 544 ± 3
312.35 K, 8010 kPa, Fluid (supercritical or subcritical phases), x2 = 0.96 | 556 ± 3
312.35 K, 8070 kPa, Fluid (supercritical or subcritical phases), x2 = 0.96 | 568 ± 4
312.35 K, 8150 kPa, Fluid (supercritical or subcritical phases), x2 = 0.96 | 581 ± 4
312.35 K, 8230 kPa, Fluid (supercritical or subcritical phases), x2 = 0.96 | 594 ± 4
312.35 K, 8360 kPa, Fluid (supercritical or subcritical phases), x2 = 0.96 | 608 ± 4
312.35 K, 8530 kPa, Fluid (supercritical or subcritical phases), x2 = 0.96 | 624 ± 4
312.35 K, 8740 kPa, Fluid (supercritical or subcritical phases), x2 = 0.96 | 639 ± 4
312.35 K, 9020 kPa, Fluid (supercritical or subcritical phases), x2 = 0.96 | 656 ± 4
312.35 K, 9400 kPa, Fluid (supercritical or subcritical phases), x2 = 0.96 | 674 ± 4
312.35 K, 9600 kPa, Fluid (supercritical or subcritical phases), x2 = 0.96 | 686 ± 4
315.55 K, 7940 kPa, Fluid (supercritical or subcritical phases), x2 = 0.947 | 466 ± 3
315.55 K, 7960 kPa, Fluid (supercritical or subcritical phases), x2 = 0.947 | 472 ± 3
315.55 K, 7970 kPa, Fluid (supercritical or subcritical phases), x2 = 0.947 | 475 ± 3
315.55 K, 8010 kPa, Fluid (supercritical or subcritical phases), x2 = 0.947 | 484 ± 3
315.55 K, 8040 kPa, Fluid (supercritical or subcritical phases), x2 = 0.947 | 492 ± 3
315.55 K, 8070 kPa, Fluid (supercritical or subcritical phases), x2 = 0.947 | 502 ± 3
315.55 K, 8110 kPa, Fluid (supercritical or subcritical phases), x2 = 0.947 | 512 ± 3
315.55 K, 8150 kPa, Fluid (supercritical or subcritical phases), x2 = 0.947 | 522 ± 3
315.55 K, 8200 kPa, Fluid (supercritical or subcritical phases), x2 = 0.947 | 532 ± 3
315.55 K, 8250 kPa, Fluid (supercritical or subcritical phases), x2 = 0.947 | 543 ± 3
315.55 K, 8320 kPa, Fluid (supercritical or subcritical phases), x2 = 0.947 | 555 ± 3
315.55 K, 8390 kPa, Fluid (supercritical or subcritical phases), x2 = 0.947 | 566 ± 4
315.55 K, 8490 kPa, Fluid (supercritical or subcritical phases), x2 = 0.947 | 578 ± 4
315.55 K, 8610 kPa, Fluid (supercritical or subcritical phases), x2 = 0.947 | 592 ± 4
315.55 K, 8760 kPa, Fluid (supercritical or subcritical phases), x2 = 0.947 | 605 ± 4
315.55 K, 8970 kPa, Fluid (supercritical or subcritical phases), x2 = 0.947 | 620 ± 4
315.55 K, 9200 kPa, Fluid (supercritical or subcritical phases), x2 = 0.947 | 635 ± 4
315.55 K, 9520 kPa, Fluid (supercritical or subcritical phases), x2 = 0.947 | 650 ± 4
315.55 K, 9940 kPa, Fluid (supercritical or subcritical phases), x2 = 0.947 | 666 ± 4
315.55 K, 10200 kPa, Fluid (supercritical or subcritical phases), x2 = 0.947 | 676 ± 4
315.55 K, 10490 kPa, Fluid (supercritical or subcritical phases), x2 = 0.947 | 684 ± 4
315.55 K, 10840 kPa, Fluid (supercritical or subcritical phases), x2 = 0.947 | 695 ± 4
315.55 K, 11480 kPa, Fluid (supercritical or subcritical phases), x2 = 0.947 | 711 ± 4
318.15 K, 7980 kPa, Fluid (supercritical or subcritical phases), x2 = 0.901 | 590 ± 4
318.15 K, 8070 kPa, Fluid (supercritical or subcritical phases), x2 = 0.901 | 594 ± 4
318.15 K, 8170 kPa, Fluid (supercritical or subcritical phases), x2 = 0.901 | 600 ± 4
318.15 K, 8280 kPa, Fluid (supercritical or subcritical phases), x2 = 0.901 | 606 ± 4
318.15 K, 8380 kPa, Fluid (supercritical or subcritical phases), x2 = 0.901 | 613 ± 4
318.15 K, 8520 kPa, Fluid (supercritical or subcritical phases), x2 = 0.901 | 619 ± 4
318.15 K, 8660 kPa, Fluid (supercritical or subcritical phases), x2 = 0.901 | 625 ± 4
318.15 K, 8810 kPa, Fluid (supercritical or subcritical phases), x2 = 0.901 | 631 ± 4
318.15 K, 8980 kPa, Fluid (supercritical or subcritical phases), x2 = 0.901 | 638 ± 4
318.15 K, 9180 kPa, Fluid (supercritical or subcritical phases), x2 = 0.901 | 644 ± 4
318.15 K, 9400 kPa, Fluid (supercritical or subcritical phases), x2 = 0.901 | 651 ± 4
318.15 K, 9440 kPa, Fluid (supercritical or subcritical phases), x2 = 0.901 | 654 ± 4
318.15 K, 9550 kPa, Fluid (supercritical or subcritical phases), x2 = 0.901 | 656 ± 4
318.15 K, 9720 kPa, Fluid (supercritical or subcritical phases), x2 = 0.901 | 661 ± 4
318.15 K, 9910 kPa, Fluid (supercritical or subcritical phases), x2 = 0.901 | 666 ± 4
318.15 K, 10010 kPa, Fluid (supercritical or subcritical phases), x2 = 0.901 | 669 ± 4
318.15 K, 10130 kPa, Fluid (supercritical or subcritical phases), x2 = 0.901 | 670 ± 4
318.15 K, 10260 kPa, Fluid (supercritical or subcritical phases), x2 = 0.901 | 674 ± 4
318.15 K, 10370 kPa, Fluid (supercritical or subcritical phases), x2 = 0.901 | 677 ± 4
318.15 K, 10560 kPa, Fluid (supercritical or subcritical phases), x2 = 0.901 | 680 ± 4
318.15 K, 10680 kPa, Fluid (supercritical or subcritical phases), x2 = 0.901 | 683 ± 4
318.15 K, 10880 kPa, Fluid (supercritical or subcritical phases), x2 = 0.901 | 685 ± 4
318.15 K, 11070 kPa, Fluid (supercritical or subcritical phases), x2 = 0.901 | 689 ± 4
318.15 K, 11290 kPa, Fluid (supercritical or subcritical phases), x2 = 0.901 | 694 ± 4
318.15 K, 11490 kPa, Fluid (supercritical or subcritical phases), x2 = 0.901 | 697 ± 4
318.15 K, 11650 kPa, Fluid (supercritical or subcritical phases), x2 = 0.901 | 698 ± 4
318.15 K, 11890 kPa, Fluid (supercritical or subcritical phases), x2 = 0.901 | 702 ± 4
318.15 K, 12110 kPa, Fluid (supercritical or subcritical phases), x2 = 0.901 | 705 ± 4
318.15 K, 12380 kPa, Fluid (supercritical or subcritical phases), x2 = 0.901 | 710 ± 4
318.15 K, 12600 kPa, Fluid (supercritical or subcritical phases), x2 = 0.901 | 713 ± 4
318.15 K, 12940 kPa, Fluid (supercritical or subcritical phases), x2 = 0.901 | 716 ± 4
318.15 K, 13280 kPa, Fluid (supercritical or subcritical phases), x2 = 0.901 | 722 ± 5
318.15 K, 13690 kPa, Fluid (supercritical or subcritical phases), x2 = 0.901 | 727 ± 5
318.15 K, 13870 kPa, Fluid (supercritical or subcritical phases), x2 = 0.901 | 728 ± 5
318.15 K, 14050 kPa, Fluid (supercritical or subcritical phases), x2 = 0.901 | 732 ± 5
318.15 K, 14410 kPa, Fluid (supercritical or subcritical phases), x2 = 0.901 | 734 ± 5
318.15 K, 14620 kPa, Fluid (supercritical or subcritical phases), x2 = 0.901 | 736 ± 5
318.15 K, 14900 kPa, Fluid (supercritical or subcritical phases), x2 = 0.901 | 738 ± 5
318.15 K, Liquid, Other PVT measurement, x2 = 0.901 | 585 ± 2
323.15 K, 2500 kPa, Fluid (supercritical or subcritical phases), x2 = 0.214 | 607 ± 4
